Reference: PubChem BioAssay AID330 (DTP/NCI, 2004)
Several values for one entry are separate records, joined by “and”; a condition that tells them apart may be missing. Equal entries are not always repeated. Toxic doses and inconclusive results are not listed.

System: P388 leukemia ip, CD2F1 mice, survival T/C
Test: NCI In Vivo Anticancer Drug Screen. Data for tumor model P388 Leukemia (intraperitoneal) in CD2F1 (CDF1) mice
Conditions: endpoint: median survival time, higher = longer survival
Outline: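 Mice carrying the transplanted tumor received test compound or vehicle. Survival was recorded in each group, and the value is the treated-group measurement divided by that of the vehicle-treated control group.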

[1] = dose: 50.0 mg/kg/injection, schedule: Q01DX009 (ip), vehicle: saline
[2] = dose: 50.0 mg/kg/injection, schedule: Q01DX009 (ip), vehicle: Klucel (hydroxypropylcellulose) (HPC)
[3] = dose: 100.0 mg/kg/injection, schedule: Q01DX009 (ip), vehicle: Klucel (hydroxypropylcellulose) (HPC)
[4] = dose: 200.0 mg/kg/injection, schedule: Q01DX009 (ip), vehicle: Klucel (hydroxypropylcellulose) (HPC)
[5] = dose: 100.0 mg/kg/injection, schedule: Q01DX001 (ip), vehicle: Klucel (hydroxypropylcellulose) (HPC)
[6] = dose: 50.0 mg/kg/injection, schedule: Q01DX005 (ip), vehicle: saline
[7] = dose: 100.0 mg/kg/injection, schedule: Q01DX005 (ip), vehicle: saline
[8] = dose: 200.0 mg/kg/injection, schedule: Q01DX005 (ip), vehicle: saline
[9] = dose: 50.0 mg/kg/injection, schedule: Q01DX005 (ip), vehicle: saline with Tween-80
[10] = dose: 100.0 mg/kg/injection, schedule: Q01DX005 (ip), vehicle: saline with Tween-80
[11] = dose: 200.0 mg/kg/injection, schedule: Q01DX005 (ip), vehicle: saline with Tween-80
[12] = dose: 60.0 mg/kg/injection, schedule: Q01DX005 (ip), vehicle: saline with Tween-80
[13] = dose: 100.0 mg/kg/injection, schedule: Q04DX003 (ip), vehicle: Klucel (hydroxypropylcellulose) (HPC)
[14] = dose: 200.0 mg/kg/injection, schedule: Q04DX003 (ip), vehicle: Klucel (hydroxypropylcellulose) (HPC)
[15] = dose: 400.0 mg/kg/injection, schedule: Q04DX003 (ip), vehicle: Klucel (hydroxypropylcellulose) (HPC)

CCOC(=O)CCc1[nH]c(=S)ncc1C(=O)OCC
T/C (dose: 7.5 mg/kg/injection, schedule: Q01DX009 (ip), vehicle: saline with Tween-80): 96 % of control
T/C (dose: 15.0 mg/kg/injection, schedule: Q01DX009 (ip), vehicle: saline with Tween-80): 101 % of control
T/C (dose: 30.0 mg/kg/injection, schedule: Q01DX009 (ip), vehicle: saline with Tween-80): 104 % of control

O=C(NC(Cc1ccc(I)cc1)C(=O)O)c1cccc(Cl)c1 (stereo not drawn)
T/C (dose: 50.0 mg/kg/injection, schedule: Q01DX005 (ip), vehicle: Klucel (hydroxypropylcellulose) (HPC)): 99 % of control
T/C (dose: 100.0 mg/kg/injection, schedule: Q01DX005 (ip), vehicle: Klucel (hydroxypropylcellulose) (HPC)): 108 % of control
T/C (dose: 200.0 mg/kg/injection, schedule: Q01DX005 (ip), vehicle: Klucel (hydroxypropylcellulose) (HPC)): 108 % of control

c1ccc2c(c1)CN1CCN=C1N2
T/C (dose: 25.0 mg/kg/injection, schedule: Q01DX009 (ip), vehicle: saline): 100 % of control
T/C [1]: 94 % of control

Cc1noc2c1N=C(c1ccccc1O)CC(c1ccccc1)C2 (stereo not drawn)
T/C [2]: 100 % of control
T/C [3]: 110 % of control
T/C [4]: 99 % of control

O=c1cccccc1[O][Sn]([O]c1cccccc1=O)([c]1ccccc1)[c]1ccccc1
T/C (dose: 50.0 mg/kg/injection, schedule: Q01DX001 (ip), vehicle: Klucel (hydroxypropylcellulose) (HPC)): 104 % of control
T/C [5]: 116 % of control

CCCCC(=C=NCCCN(C)C)CC
T/C [6]: 99 % of control
T/C [7]: 92 % of control
T/C [8]: 101 % of control

Cc1cccc(C)c1NC(=O)/C(Cl)=C1/Sc2ccccc2NC1=O
T/C [9]: 105 % of control
T/C [10]: 97 % of control
T/C [11]: 88 % of control

CSc1ccc(NC(=S)SC(C)C)cc1Cl
T/C [1]: 97 % of control
T/C (dose: 100.0 mg/kg/injection, schedule: Q01DX009 (ip), vehicle: saline): 97 % of control
T/C (dose: 200.0 mg/kg/injection, schedule: Q01DX009 (ip), vehicle: saline): 102 % of control

C/C=C/C1OC(=O)C=C1Sc1ccccc1 (stereo not drawn)
T/C [9]: 114 % of control
T/C [10]: 117 % of control
T/C [11]: 114 % of control

COc1nccn2c(C)nnc12
T/C [5]: 100 % of control
T/C (dose: 200.0 mg/kg/injection, schedule: Q01DX001 (ip), vehicle: Klucel (hydroxypropylcellulose) (HPC)): 100 % of control

Nc1ncnc2[nH]c(=O)[nH]c12
T/C (dose: 25.0 mg/kg/injection, schedule: Q04DX003 (ip), vehicle: saline): 95 % of control
T/C (dose: 50.0 mg/kg/injection, schedule: Q04DX003 (ip), vehicle: saline): 104 % of control
T/C (dose: 100.0 mg/kg/injection, schedule: Q04DX003 (ip), vehicle: saline): 104 % of control

CCCCc1cc2ccccc2c(OCCN(C)C)n1
T/C [6]: 97 % of control
T/C [7]: 115 % of control
T/C [8]: 111 % of control

FC(F)(F)C(F)(F)C(F)(F)C(F)(F)C(F)(F)C(F)(F)C[CH2][Sn]([Cl])([Cl])[CH2]CC(F)(F)C(F)(F)C(F)(F)C(F)(F)C(F)(F)C(F)(F)F
T/C [12]: 118 % of control
T/C (dose: 120.0 mg/kg/injection, schedule: Q01DX005 (ip), vehicle: saline with Tween-80): 119 % of control

COC1=C(N=[N+]=[N-])C(=O)C(OC)=C(N=[N+]=[N-])C1=O
T/C (dose: 5.0 mg/kg/injection, schedule: Q01DX009 (ip), vehicle: saline with Tween-80): 90 % of control
T/C (dose: 10.0 mg/kg/injection, schedule: Q01DX009 (ip), vehicle: saline with Tween-80): 90 % of control
T/C (dose: 20.0 mg/kg/injection, schedule: Q01DX009 (ip), vehicle: saline with Tween-80): 100 % of control

O=S(=O)(O)O.[NH-]CC[NH-].[Pt+2]
T/C (dose: 6.25 mg/kg/injection, schedule: Q04DX002 (ip), vehicle: saline): 168 % of control
T/C (dose: 12.5 mg/kg/injection, schedule: Q04DX002 (ip), vehicle: saline): 97 % of control

OC(COc1c2ccccc2nc2ccccc12)CN1CCN(c2cccc(Cl)c2)CC1 (stereo not drawn)
T/C [9]: 90 % of control
T/C [10]: 88 % of control
T/C [11]: 90 % of control

CCCCOc1ccc(/C=N/NC(=O)CNC(=O)Nc2cccc([N+](=O)[O-])c2)cc1
T/C (dose: 15.0 mg/kg/injection, schedule: Q01DX005 (ip), vehicle: saline with Tween-80): 98 % of control
T/C (dose: 30.0 mg/kg/injection, schedule: Q01DX005 (ip), vehicle: saline with Tween-80): 89 % of control
T/C [12]: 86 % of control and 87 % of control
T/C (dose: 240.0 mg/kg/injection, schedule: Q01DX005 (ip), vehicle: saline with Tween-80): 91 % of control

COc1cc2c(cc1Cl)nc1c(=O)[nH]c(=O)nc-1n2CCN1CCCC1
T/C (dose: 12.5 mg/kg/injection, schedule: Q01DX005 (ip), vehicle: saline with Tween-80): 100 % of control
T/C (dose: 25.0 mg/kg/injection, schedule: Q01DX005 (ip), vehicle: saline with Tween-80): 108 % of control
T/C [9]: 111 % of control and 115 % of control
T/C [10]: 116 % of control
T/C [11]: 114 % of control

Cc1cc(=O)n2c(nc3cc(C)c(C)cc32)s1
T/C [2]: 103 % of control
T/C [3]: 100 % of control

COCC1OC(OC2C3=C(C(C)C)CCC3(C)/C=C3\C(CCC3(O)COC)C(C)C2O)C(O)C2OC3OC12OC3(C)C1CO1 (stereo not drawn)
T/C (dose: 1.5 mg/kg/injection, schedule: Q01DX009 (ip), vehicle: Klucel (hydroxypropylcellulose) (HPC)): 96 % of control
T/C (dose: 3.0 mg/kg/injection, schedule: Q01DX009 (ip), vehicle: Klucel (hydroxypropylcellulose) (HPC)): 113 % of control
T/C (dose: 6.0 mg/kg/injection, schedule: Q01DX009 (ip), vehicle: Klucel (hydroxypropylcellulose) (HPC)): 91 % of control
T/C (dose: 12.0 mg/kg/injection, schedule: Q01DX009 (ip), vehicle: Klucel (hydroxypropylcellulose) (HPC)): 97 % of control
T/C (dose: 24.0 mg/kg/injection, schedule: Q01DX009 (ip), vehicle: Klucel (hydroxypropylcellulose) (HPC)): 100 % of control

O=c1[nH]c2ccccc2c(=O)n1CCCCCCN1CCN(c2cccc(Cl)c2)CC1
T/C [2]: 96 % of control
T/C [3]: 105 % of control
T/C [4]: 100 % of control

O=C(C/C(=N\C(=S)Nc1cc(C(F)(F)F)ccc1Cl)NO)N1CCCC1
T/C (dose: 25.0 mg/kg/injection, schedule: Q01DX009 (ip), vehicle: saline with Tween-80): 101 % of control and 116 % of control
T/C (dose: 50.0 mg/kg/injection, schedule: Q01DX009 (ip), vehicle: saline with Tween-80): 105 % of control and 112 % of control
T/C (dose: 100.0 mg/kg/injection, schedule: Q01DX009 (ip), vehicle: saline with Tween-80): 117 % of control
T/C (dose: 200.0 mg/kg/injection, schedule: Q01DX009 (ip), vehicle: saline with Tween-80): 117 % of control

O=C1OCCN1CCCl
T/C [3]: 118 % of control
T/C [4]: 121 % of control
T/C (dose: 400.0 mg/kg/injection, schedule: Q01DX009 (ip), vehicle: Klucel (hydroxypropylcellulose) (HPC)): 121 % of control

CC(C)(C)C1(C#N)C(=O)N(c2ccc(N3C(=O)C(C#N)(C(C)(C)C)C34c3ccccc3-c3ccccc34)cc2)C12c1ccccc1-c1ccccc12 (stereo not drawn)
T/C [13]: 93 % of control
T/C [14]: 93 % of control
T/C [15]: 91 % of control

c1cc(-c2cc(-c3cc(-c4ccncc4)n[nH]3)[nH]n2)ccn1
T/C (dose: 60.0 mg/kg/injection, schedule: Q01DX005 (ip), vehicle: Klucel + Tween-80): 91 % of control
T/C (dose: 120.0 mg/kg/injection, schedule: Q01DX005 (ip), vehicle: Klucel + Tween-80): 100 % of control
T/C (dose: 240.0 mg/kg/injection, schedule: Q01DX005 (ip), vehicle: Klucel + Tween-80): 91 % of control

O=c1c2ccccc2c(-c2ccc(N(CCCl)CCCl)cc2)cn1CCCl
T/C (dose: 25.0 mg/kg/injection, schedule: Q04DX003 (ip), vehicle: Klucel (hydroxypropylcellulose) (HPC)): 100 % of control
T/C (dose: 50.0 mg/kg/injection, schedule: Q04DX003 (ip), vehicle: Klucel (hydroxypropylcellulose) (HPC)): 114 % of control
T/C [13]: 107 % of control
T/C [14]: 115 % of control
T/C [15]: 100 % of control

Clc1nc(Cl)c2c3c(sc2n1)CCCC3
T/C (dose: 60.0 mg/kg/injection, schedule: Q01DX005 (ip), vehicle: Klucel (hydroxypropylcellulose) (HPC)): 91 % of control
T/C (dose: 120.0 mg/kg/injection, schedule: Q01DX005 (ip), vehicle: Klucel (hydroxypropylcellulose) (HPC)): 90 % of control
T/C (dose: 240.0 mg/kg/injection, schedule: Q01DX005 (ip), vehicle: Klucel (hydroxypropylcellulose) (HPC)): 99 % of control
